In ChEMBL document CHEMBL1201862, “PubChem BioAssay data set” (2004):
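These data come from cells grown in 96-well plates and exposed to compound for 48 hours at five concentrations. GI50: concentration for 50% inhibition of growth.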 Active and inactive are the calls of the source. Cut-off read from the data, not from the text of the source: active = GI50 up to about 1.1 µM and inactive = higher.

What was measured:
Assay in all cases: DTP human tumour cell line panel, 48 h
[1] = test system: A498
[2] = test system: HL-60
[3] = test system: Hs-578T
[4] = test system: MDA-MB-231
[5] = test system: BT-549
[6] = test system: HOP-62
[7] = test system: SN12C
[8] = test system: SNB-75
[9] = test system: MCF7
[10] = test system: CCRF-CEM
[11] = test system: MDA-MB-435
[12] = test system: SNB-19
[13] = test system: HCT-15
[14] = test system: SF-295
[15] = test system: COLO 205
[16] = test system: SF-268
[17] = test system: RPMI-8226
[18] = test system: RXF 393
[19] = test system: SF-539
[20] = test system: SW-620

SMILES | GI50 [1] | GI50 [2] | GI50 [3] | GI50 [4] | GI50 [5] | GI50 [6] | GI50 [7] | GI50 [8] | GI50 [9] | GI50 [10] | GI50 [11] | GI50 [12] | GI50 [13] | GI50 [14] | GI50 [15] | GI50 [16] | GI50 [17] | GI50 [18] | GI50 [19] | GI50 [20]
O=C(c1nc2ccc([N+](=O)[O-])cc2nc1O)C(O)c1ccc2c(c1)OCO2 (stereo not given) | > 100 µM (inactive) | > 39.1 µM (inactive) | > 100 µM (inactive) | > 100 µM (inactive) | > 100 µM (inactive) | > 100 µM (inactive) | > 100 µM (inactive) | > 100 µM (inactive) | 96.8 µM (inactive) | 83.9 µM (inactive) | 93.1 µM (inactive) | > 100 µM (inactive) | > 62.2 µM | > 52.5 µM (inactive) | > 96.4 µM (inactive) | > 100 µM (inactive) | 55.5 µM (inactive) | > 100 µM (inactive) | > 100 µM (inactive) | > 100 µM (inactive)
COC(=O)c1ccccc1C1CN=NC12Cc1c(C)cccc1C2=O (stereo not given) | > 100 µM (inactive) | 87.3 µM (inactive) | > 100 µM (inactive) | > 100 µM (inactive) | > 100 µM (inactive) | > 100 µM (inactive) | > 100 µM (inactive) | 94.4 µM (inactive) | > 100 µM (inactive) | > 100 µM (inactive) | > 100 µM (inactive) | > 100 µM (inactive) | > 100 µM | 79.4 µM (inactive) | > 100 µM (inactive) | > 100 µM (inactive) | > 100 µM (inactive) | > 100 µM (inactive) | > 100 µM (inactive) | > 100 µM (inactive)
O=C1O[C@H]2C3C4CCC(C4[C@@H]2I)[C@H]13 (stereo not given in full) | > 100 µM (inactive) | > 100 µM (inactive) | > 100 µM (inactive) | > 100 µM (inactive) | > 100 µM (inactive) | > 100 µM (inactive) | > 100 µM (inactive) | 60.3 µM (inactive) | > 100 µM (inactive) | > 100 µM (inactive) | > 100 µM (inactive) | > 100 µM (inactive) | > 100 µM | > 100 µM (inactive) | > 100 µM (inactive) | > 100 µM (inactive) | > 100 µM (inactive) | > 100 µM (inactive) | > 100 µM (inactive) | > 100 µM (inactive)
Cc1ccc(/C=N/Nc2ccccn2)s1 | > 100 µM (inactive) | > 76.7 µM (inactive) | > 100 µM (inactive) | > 41.1 µM (inactive) | 81.3 µM (inactive) | > 100 µM (inactive) | > 47.4 µM (inactive) | 36.7 µM (inactive) | 21.1 µM (inactive) | > 100 µM (inactive) | > 100 µM (inactive) | > 100 µM (inactive) | > 72.6 µM | > 100 µM (inactive) | > 100 µM (inactive) | > 64.6 µM (inactive) | > 100 µM (inactive) | > 100 µM (inactive) | > 100 µM (inactive) | > 100 µM (inactive)
CCCCCCCCOC1C(O)C(O)C(O)C(O)C12CO2 (stereo not given) | > 100 µM (inactive) | 42 µM (inactive) | 54.5 µM (inactive) | 39.8 µM (inactive) | 37.6 µM (inactive) | 44.6 µM (inactive) | 51.2 µM (inactive) | 32 µM (inactive) | 46.5 µM (inactive) | 28.3 µM (inactive) | 29.8 µM (inactive) | 91.4 µM (inactive) | 50.4 µM | 43.8 µM (inactive) | > 100 µM (inactive) | 64.4 µM (inactive) | 50.2 µM (inactive) | 29 µM (inactive) | > 100 µM (inactive) | 45.4 µM (inactive)
